Experimental data as given in ChEMBL document CHEMBL5647694, “Novel orally bioavailable EZH1/2 dual inhibitors with greater antitumor efficacy than an EZH2 selective inhibitor” (Cancer Sci, 2017).

Assays:
P3HR-1 = test: Antitumor activity against human P3HR-1 cells assessed as cell growth inhibition treated for 10 to 15 days; format: functional; details: time 10-15 day
[1] = Antitumor activity against human BCP-1 cells assessed as cell growth inhibition treated for 10 to 15 days; format: functional; details: time 10-15 day
BT-20 = test: Antitumor activity against human BT-20 cells assessed as cell growth inhibition treated for 10 to 15 days; format: functional; details: time 10-15 day
[2] = biological target: Histone-lysine N-methyltransferase, H3 lysine-79 specific (Homo sapiens, UniProt Q8TEK3); test: Inhibition of human DOT1L using Nucleosomes and [3H]SAM as substrate incubated for 30 mins to 1 hr by HotSpot kinase assay
[3] = biological target: Histone-lysine N-methyltransferase 2A (Homo sapiens, UniProt Q03164); test: Inhibition of human MLL1 using Nucleosomes and [3H]SAM as substrate incubated for 30 mins to 1 hr by HotSpot kinase assay
[4] = biological target: Protein arginine N-methyltransferase 3 (Homo sapiens, UniProt O60678); test: Inhibition of human PRMT3 using Histone H4 and [3H]SAM as substrate incubated for 30 mins to 1 hr by HotSpot kinase assay
[5] = biological target: Protein arginine N-methyltransferase 6 (Homo sapiens, UniProt Q96LA8); test: Inhibition of human PRMT6 using Histone H3 and [3H]SAM as substrate incubated for 30 mins to 1 hr by HotSpot kinase assay
[6] = biological target: Ephrin type-A receptor 2 (Homo sapiens) (UniProt P29317); test: Inhibition of N-terminal GST-fused human EPHA2 cytoplasmic domain (572 to 976 residues) expressed in baculovirus-infected Sf21 cells using Blk/Lyntide as substrate at 1 uM in presence of ATP by Mobility shift assay
[7] = biological target: Serine/threonine-protein kinase D2 (Homo sapiens) (UniProt Q9BZL6); test: Inhibition of N-terminal GST-fused full length human PKD2 (1 to 878 residues) expressed in baculovirus expression system using GS peptide as substrate at 1 uM in presence of ATP by Mobility shift assay
TALL-1 = test: Antitumor activity against human TALL-1 cells assessed as cell growth inhibition treated for 10 to 15 days; format: functional; details: time 10-15 day
MLMA = test: Antitumor activity against human MLMA cells assessed as cell growth inhibition treated for 10 to 15 days; format: functional; details: time 10-15 day
[8] = Antitumor activity against human EB1 cells assessed as cell growth inhibition treated for 10 to 15 days; format: functional; details: time 10-15 day
RL = test: Antitumor activity against human RL cells assessed as cell growth inhibition treated for 10 to 15 days; format: functional; details: time 10-15 day
SK-BR-3 = test: Antitumor activity against human SK-BR-3 cells assessed as cell growth inhibition treated for 10 to 15 days; format: functional; details: time 10-15 day
HCC1395 = test: Antitumor activity against human HCC1395 cells assessed as cell growth inhibition treated for 10 to 15 days; format: functional; details: time 10-15 day
HCC1419 = test: Antitumor activity against human HCC1419 cells assessed as cell growth inhibition treated for 10 to 15 days; format: functional; details: time 10-15 day
HCC70 = test: Antitumor activity against human HCC70 cells assessed as cell growth inhibition treated for 10 to 15 days; format: functional; details: time 10-15 day
MDA-MB-468 = test: Antitumor activity against human MDA-MB-468 cells assessed as cell growth inhibition treated for 10 to 15 days; format: functional; details: time 10-15 day
SW48 = test: Antitumor activity against human SW48 cells assessed as cell growth inhibition treated for 10 to 15 days; format: functional; details: time 10-15 day
SBC-5 = test: Antitumor activity against human SBC-5 cells assessed as cell growth inhibition treated for 10 to 15 days; format: functional; details: time 10-15 day
NCI-H1694 = test: Antitumor activity against human NCI-H1694 cells assessed as cell growth inhibition treated for 10 to 15 days; format: functional; details: time 10-15 day
[9] = Antitumor activity against human COV434 cells assessed as cell growth inhibition treated for 10 to 15 days; format: functional; details: time 10-15 day
[10] = Antitumor activity against human SNU-840 cells assessed as cell growth inhibition treated for 10 to 15 days; format: functional; details: time 10-15 day
ECC10 = test: Antitumor activity against human ECC10 cells assessed as cell growth inhibition treated for 10 to 15 days; format: functional; details: time 10-15 day
TGBC11TKB = test: Antitumor activity against human TGBC11TKB cells assessed as cell growth inhibition treated for 10 to 15 days; format: functional; details: time 10-15 day
[11] = Antitumor activity against human HUG1N cells assessed as cell growth inhibition treated for 10 to 15 days; format: functional; details: time 10-15 day
NUGC-3 = test: Antitumor activity against human NUGC-3 cells assessed as cell growth inhibition treated for 10 to 15 days; format: functional; details: time 10-15 day
MKN-1 = test: Antitumor activity against human MKN-1 cells assessed as cell growth inhibition treated for 10 to 15 days; format: functional; details: time 10-15 day
[12] = biological target: Interleukin-1 receptor-associated kinase 1 (Homo sapiens) (UniProt P51617); test: Inhibition of N-terminal GST-fused truncated human IRAK1 (194 to 712 residues) expressed in baculovirus expression system using SRPKtide as substrate at 1 uM in presence of ATP by IMAP assay
[13] = Cmax in Crl:CD Sprague-Dawley rat at 100 mg/kg, po administered daily for 14 days by LC/MS/MS analysis; format: ADME, organism-based; details: in vivo, 336 h, time 14 day
[14] = Cmax in Crl:CD Sprague-Dawley rat at 100 mg/kg, po by LC/MS/MS analysis; format: ADME, organism-based; details: in vivo
[15] = Toxicity in Crl:CD Sprague-Dawley rat assessed as decrease in food consumption at 100 mg/kg, po administered daily for 14 days; format: organism-based; details: in vivo, 336 h, time 14 day
[16] = Toxicity in Crl:CD Sprague-Dawley rat assessed as mean corpuscular volume in blood at 100 mg/kg, po administered daily for 14 days (reference value: 61.5 +/-1.92 fL); format: organism-based; details: in vivo, 336 h, time 14 day
[17] = Toxicity in Crl:CD Sprague-Dawley rat assessed as platelet count in blood at 100 mg/kg, po administered daily for 14 days (reference value: 1160+/-65.1 10^3/uL); format: organism-based; details: in vivo, 336 h, time 14 day
[18] = Toxicity in Crl:CD Sprague-Dawley rat assessed as total bilirubin level in blood at 100 mg/kg, po administered daily for 14 days (reference value: 0.003+/-0.005 mg/dL); format: organism-based; details: in vivo, 336 h, time 14 day
[19] = Toxicity in Crl:CD Sprague-Dawley rat assessed as globulin level in blood at 100 mg/kg, po administered daily for 14 days (reference value: 1.6 +/-0.082 g/dL); format: organism-based; details: in vivo, 336 h, time 14 day
[20] = Toxicity in Crl:CD Sprague-Dawley rat assessed as creatinine level in blood at 100 mg/kg, po administered daily for 14 days (reference value: 0.223 +/-[…]); format: organism-based; details: in vivo, 336 h, time 14 day
[21] = Toxicity in Crl:CD Sprague-Dawley rat assessed as sodium level in blood at 100 mg/kg, po administered daily for 14 days (reference value: 141+/-0.82 mEq/L); format: organism-based; details: in vivo, 336 h, time 14 day
[22] = Toxicity in Crl:CD Sprague-Dawley rat assessed as potassium level in blood at 100 mg/kg, po administered daily for 14 days (reference value: 4.18+/-0.189 mEq/L); format: organism-based; details: in vivo, 336 h, time 14 day
[23] = Toxicity in Crl:CD Sprague-Dawley rat assessed as atrophy of spleen at 100 mg/kg, po administered daily for 14 days by hematoxylin and eosin staining based analysis; format: organism-based; details: in vivo, 336 h, time 14 day

Sequence of Histone-lysine N-methyltransferase 2A (Q03164 1-2718 limits assumed): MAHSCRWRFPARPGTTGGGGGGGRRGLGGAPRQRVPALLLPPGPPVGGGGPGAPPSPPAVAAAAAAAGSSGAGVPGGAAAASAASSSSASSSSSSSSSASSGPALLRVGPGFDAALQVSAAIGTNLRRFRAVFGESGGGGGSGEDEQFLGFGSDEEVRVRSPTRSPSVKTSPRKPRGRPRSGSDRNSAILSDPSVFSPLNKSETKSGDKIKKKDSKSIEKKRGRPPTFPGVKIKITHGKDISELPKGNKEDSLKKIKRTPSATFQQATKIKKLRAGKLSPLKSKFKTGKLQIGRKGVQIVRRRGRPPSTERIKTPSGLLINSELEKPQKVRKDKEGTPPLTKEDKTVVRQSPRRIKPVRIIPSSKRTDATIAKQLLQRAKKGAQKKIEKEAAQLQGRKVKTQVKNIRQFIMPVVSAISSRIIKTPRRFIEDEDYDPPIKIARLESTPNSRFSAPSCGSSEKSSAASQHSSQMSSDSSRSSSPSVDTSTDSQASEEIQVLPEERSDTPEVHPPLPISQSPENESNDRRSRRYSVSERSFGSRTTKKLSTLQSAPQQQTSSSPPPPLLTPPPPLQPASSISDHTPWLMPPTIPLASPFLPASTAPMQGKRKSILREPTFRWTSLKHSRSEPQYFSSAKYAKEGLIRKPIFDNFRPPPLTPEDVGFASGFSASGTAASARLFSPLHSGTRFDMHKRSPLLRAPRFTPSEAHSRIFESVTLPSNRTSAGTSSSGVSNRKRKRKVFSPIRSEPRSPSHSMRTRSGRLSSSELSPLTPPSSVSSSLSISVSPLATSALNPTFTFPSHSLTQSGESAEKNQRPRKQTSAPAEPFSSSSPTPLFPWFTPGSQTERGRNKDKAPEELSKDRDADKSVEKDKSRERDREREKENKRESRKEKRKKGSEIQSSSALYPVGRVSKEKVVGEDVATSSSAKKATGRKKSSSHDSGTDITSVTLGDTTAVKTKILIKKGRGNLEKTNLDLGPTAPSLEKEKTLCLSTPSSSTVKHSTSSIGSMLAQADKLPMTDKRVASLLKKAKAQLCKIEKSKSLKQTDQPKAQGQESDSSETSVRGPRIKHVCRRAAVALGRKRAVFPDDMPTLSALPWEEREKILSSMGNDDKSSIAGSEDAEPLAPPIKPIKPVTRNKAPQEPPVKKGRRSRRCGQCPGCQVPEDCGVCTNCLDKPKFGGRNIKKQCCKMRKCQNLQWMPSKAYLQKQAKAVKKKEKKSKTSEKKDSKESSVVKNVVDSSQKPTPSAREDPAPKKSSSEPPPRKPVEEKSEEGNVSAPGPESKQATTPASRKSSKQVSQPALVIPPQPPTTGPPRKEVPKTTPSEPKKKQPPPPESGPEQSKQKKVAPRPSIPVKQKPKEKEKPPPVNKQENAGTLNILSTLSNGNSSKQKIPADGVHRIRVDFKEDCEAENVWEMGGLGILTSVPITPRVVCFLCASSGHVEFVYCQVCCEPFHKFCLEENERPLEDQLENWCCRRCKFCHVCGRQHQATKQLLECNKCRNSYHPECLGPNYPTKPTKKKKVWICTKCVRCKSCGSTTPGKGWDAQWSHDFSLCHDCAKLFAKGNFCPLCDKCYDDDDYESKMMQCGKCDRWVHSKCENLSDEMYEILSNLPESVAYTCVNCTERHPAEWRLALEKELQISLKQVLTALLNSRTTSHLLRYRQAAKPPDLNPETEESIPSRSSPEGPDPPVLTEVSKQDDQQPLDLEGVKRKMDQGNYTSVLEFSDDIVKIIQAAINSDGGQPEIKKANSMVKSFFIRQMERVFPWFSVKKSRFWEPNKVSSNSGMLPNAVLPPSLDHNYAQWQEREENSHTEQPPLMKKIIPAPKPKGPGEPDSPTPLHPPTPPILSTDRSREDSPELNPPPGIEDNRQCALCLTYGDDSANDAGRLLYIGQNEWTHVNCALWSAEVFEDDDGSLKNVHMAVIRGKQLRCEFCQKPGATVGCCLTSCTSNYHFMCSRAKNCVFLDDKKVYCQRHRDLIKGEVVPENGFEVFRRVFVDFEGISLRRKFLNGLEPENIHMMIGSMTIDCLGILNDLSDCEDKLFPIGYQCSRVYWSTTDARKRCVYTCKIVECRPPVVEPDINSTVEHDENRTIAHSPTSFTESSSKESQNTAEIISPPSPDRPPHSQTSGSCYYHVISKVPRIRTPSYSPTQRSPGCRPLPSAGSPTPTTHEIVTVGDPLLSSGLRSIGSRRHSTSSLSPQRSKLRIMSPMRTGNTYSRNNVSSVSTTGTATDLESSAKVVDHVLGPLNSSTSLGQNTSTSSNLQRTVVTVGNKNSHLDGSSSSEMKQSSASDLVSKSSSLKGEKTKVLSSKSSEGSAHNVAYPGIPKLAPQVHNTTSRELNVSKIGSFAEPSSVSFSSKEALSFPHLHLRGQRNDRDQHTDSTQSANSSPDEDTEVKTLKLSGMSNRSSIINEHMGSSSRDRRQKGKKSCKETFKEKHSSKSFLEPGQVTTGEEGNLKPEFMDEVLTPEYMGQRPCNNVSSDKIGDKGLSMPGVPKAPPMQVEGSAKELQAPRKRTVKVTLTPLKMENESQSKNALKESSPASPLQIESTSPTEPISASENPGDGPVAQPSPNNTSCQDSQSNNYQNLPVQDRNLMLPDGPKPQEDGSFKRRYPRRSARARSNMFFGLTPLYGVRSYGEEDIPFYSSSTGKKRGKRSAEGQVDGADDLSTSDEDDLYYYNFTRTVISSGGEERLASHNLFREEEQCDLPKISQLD
Sequence of Histone-lysine N-methyltransferase 2A (Q03164 2719-3969 limits assumed): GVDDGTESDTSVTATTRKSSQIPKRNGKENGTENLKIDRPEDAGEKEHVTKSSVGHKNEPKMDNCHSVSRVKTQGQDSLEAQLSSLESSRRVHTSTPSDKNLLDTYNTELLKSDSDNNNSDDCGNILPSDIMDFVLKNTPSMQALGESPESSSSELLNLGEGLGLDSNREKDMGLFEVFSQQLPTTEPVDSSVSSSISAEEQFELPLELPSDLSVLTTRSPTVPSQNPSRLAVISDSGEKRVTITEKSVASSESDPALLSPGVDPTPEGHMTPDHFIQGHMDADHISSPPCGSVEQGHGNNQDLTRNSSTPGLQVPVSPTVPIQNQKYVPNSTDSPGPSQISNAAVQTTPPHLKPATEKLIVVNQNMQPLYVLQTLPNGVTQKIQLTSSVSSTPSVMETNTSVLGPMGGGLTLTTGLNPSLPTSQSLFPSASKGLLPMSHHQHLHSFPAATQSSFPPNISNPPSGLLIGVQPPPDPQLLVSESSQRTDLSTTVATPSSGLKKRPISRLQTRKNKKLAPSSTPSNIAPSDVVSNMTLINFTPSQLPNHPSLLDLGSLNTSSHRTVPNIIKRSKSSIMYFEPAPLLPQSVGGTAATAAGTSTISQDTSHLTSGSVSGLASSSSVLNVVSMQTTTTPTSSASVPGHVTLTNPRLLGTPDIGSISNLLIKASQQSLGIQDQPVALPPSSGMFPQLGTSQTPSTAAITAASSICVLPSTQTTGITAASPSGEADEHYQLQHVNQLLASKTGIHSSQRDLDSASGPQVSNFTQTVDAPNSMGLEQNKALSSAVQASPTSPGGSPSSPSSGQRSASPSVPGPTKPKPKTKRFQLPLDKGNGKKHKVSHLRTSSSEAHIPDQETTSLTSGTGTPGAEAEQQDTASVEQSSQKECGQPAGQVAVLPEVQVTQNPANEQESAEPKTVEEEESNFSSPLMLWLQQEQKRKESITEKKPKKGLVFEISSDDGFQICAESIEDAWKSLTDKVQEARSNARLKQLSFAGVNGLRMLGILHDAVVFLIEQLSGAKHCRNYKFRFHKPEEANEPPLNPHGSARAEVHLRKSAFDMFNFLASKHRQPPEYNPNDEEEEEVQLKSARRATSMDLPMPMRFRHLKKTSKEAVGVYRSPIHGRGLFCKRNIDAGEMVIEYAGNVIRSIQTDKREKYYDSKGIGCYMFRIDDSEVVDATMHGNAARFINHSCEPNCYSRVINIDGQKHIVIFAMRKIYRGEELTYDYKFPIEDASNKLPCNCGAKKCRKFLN
Sequence of Protein arginine N-methyltransferase 3 (O60678 whole entry): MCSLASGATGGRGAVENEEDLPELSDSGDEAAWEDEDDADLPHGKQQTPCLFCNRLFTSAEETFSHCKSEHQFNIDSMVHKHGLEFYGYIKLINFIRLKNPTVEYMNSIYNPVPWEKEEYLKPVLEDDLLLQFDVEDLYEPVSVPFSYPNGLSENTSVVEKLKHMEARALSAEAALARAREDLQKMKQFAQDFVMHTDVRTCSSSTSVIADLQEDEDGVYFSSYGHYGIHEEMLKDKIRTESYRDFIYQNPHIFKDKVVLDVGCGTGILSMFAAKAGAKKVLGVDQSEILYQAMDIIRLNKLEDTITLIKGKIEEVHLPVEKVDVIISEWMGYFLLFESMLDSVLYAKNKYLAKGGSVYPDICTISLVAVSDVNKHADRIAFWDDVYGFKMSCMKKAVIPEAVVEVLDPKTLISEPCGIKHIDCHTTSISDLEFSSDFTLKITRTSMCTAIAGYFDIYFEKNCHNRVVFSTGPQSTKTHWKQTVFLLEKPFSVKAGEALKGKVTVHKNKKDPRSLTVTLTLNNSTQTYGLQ
Sequence of Protein arginine N-methyltransferase 6 (Q96LA8 whole entry, the tested form may be a part): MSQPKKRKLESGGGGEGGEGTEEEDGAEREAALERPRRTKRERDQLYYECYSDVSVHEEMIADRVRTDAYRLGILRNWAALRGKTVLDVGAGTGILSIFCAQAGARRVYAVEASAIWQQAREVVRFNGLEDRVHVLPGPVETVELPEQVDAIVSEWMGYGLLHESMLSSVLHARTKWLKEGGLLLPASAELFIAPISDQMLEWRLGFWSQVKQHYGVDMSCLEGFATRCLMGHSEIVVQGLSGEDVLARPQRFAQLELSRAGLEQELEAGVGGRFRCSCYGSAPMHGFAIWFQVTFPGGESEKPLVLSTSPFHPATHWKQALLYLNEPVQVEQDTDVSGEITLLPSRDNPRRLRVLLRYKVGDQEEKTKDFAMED

`Cc1cc(C)c(CNC(=O)c2cc(Cl)c3c(c2C)O[C@@](C)([C@H]2CC[C@H](N(C)C)CC2)O3)c(=O)[nH]1` [VALEMETOSTAT] gave a GI50 (P3HR-1) of 14.3 nM, a GI50 [1] of over 1000 nM and a GI50 (BT-20) of over 1000 nM. The IC50 [2] was 100000 nM, the IC50 [3] was 100000 nM and the IC50 [4] was 100000 nM. For the same compound, the IC50 [5] was 100000 nM, the inhibition [6] was -6.7% and the inhibition [7] was -4.7%. The GI50 (TALL-1) was over 1000 nM, the GI50 (MLMA) was 273 nM and the GI50 [8] was 48.2 nM. The GI50 (RL) was over 1000 nM, the GI50 (SK-BR-3) was 6.38 nM and the GI50 (HCC1395) was over 1000 nM. It also gave a GI50 (HCC1419) of over 1000 nM, a GI50 (HCC70) of over 1000 nM and a GI50 (MDA-MB-468) of over 1000 nM. It also gave a GI50 (SW48) of over 1000 nM, a GI50 (SBC-5) of 22 nM and a GI50 (NCI-H1694) of over 1000 nM. For the same compound, the GI50 [9] was 1.5 nM, the GI50 [10] was over 1000 nM and the GI50 (ECC10) was 84.5 nM. For the same compound, the GI50 (TGBC11TKB) was 86.7 nM, the GI50 [11] was 142 nM and the GI50 (NUGC-3) was 920 nM. The GI50 (MKN-1) was over 1000 nM.

`Cc1cc(C)c(CNC(=O)c2cc(Br)c3c(c2C)O[C@@](C)([C@H]2CC[C@H](N(C)C)CC2)O3)c(=O)[nH]1` showed an inhibition [12] of -4.5%, a Cmax [13] of 2440 nM and a Cmax [14] of 2150 nM. The Activity [15] was “Toxic”, the Activity [16] was 60.9 fL and the Activity [17] was 1120 10^3 /uL. It also gave an Activity [18] of 0.028 mg/dL, an Activity [19] of 1.55 g/dL and an Activity [20] of 0.238 mg/dL. For the same compound, the Activity [21] was 142 mEq/L, the Activity [22] was 4.2 mEq/L and the Activity [23] was “Toxic”.
